PubChem BioAssay (NCI)
Values joined by “and” are separate entries in the source; they are usually repeats but may differ in a detail not shown here. Equal values may be shown once.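 These data come from cells grown in 96-well plates and exposed to compound for 48 hours at five concentrations. GI50 is the concentration that inhibits growth by half. The concentration for full growth arrest is given as TGI.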

Tests used:
Assay in all cases: growth of human tumour cells (NCI), 48 h
HCT-116 colon = tested on: HCT-116 colon
HCT-15 colon = tested on: HCT-15 colon
K-562 leukemia = tested on: K-562 leukemia
M14 melanoma = tested on: M14 melanoma
MALME-3M melanoma = tested on: MALME-3M melanoma
NCI/ADR-RES ovarian = tested on: NCI/ADR-RES ovarian
SK-MEL-2 melanoma = tested on: SK-MEL-2 melanoma
SW-620 colon = tested on: SW-620 colon
T-47D breast = tested on: T-47D breast
UO-31 renal = tested on: UO-31 renal

Structure (SMILES)	GI50 (HCT-116 colon)	TGI (HCT-116 colon)	GI50 (HCT-15 colon)	TGI (HCT-15 colon)	GI50 (K-562 leukemia)	TGI (K-562 leukemia)	GI50 (M14 melanoma)	TGI (M14 melanoma)	GI50 (MALME-3M melanoma)	TGI (MALME-3M melanoma)	GI50 (NCI/ADR-RES ovarian)	TGI (NCI/ADR-RES ovarian)	GI50 (SK-MEL-2 melanoma)	TGI (SK-MEL-2 melanoma)	GI50 (SW-620 colon)	TGI (SW-620 colon)	GI50 (T-47D breast)	TGI (T-47D breast)	GI50 (UO-31 renal)	TGI (UO-31 renal)
COc1ccc(-c2nnc(SCC(=O)Nc3ccc(C(=O)/C=C/c4cc(OC)c(OC)c(OC)c4)cc3)n2-c2ccccc2)cc1OC	0.433 µM	> 10 µM	2.01 µM	> 10 µM	4.92 µM	> 10 µM	3.33 µM	> 10 µM	> 10 µM	> 10 µM	> 10 µM	> 10 µM	> 10 µM	> 10 µM	2.45 µM	> 10 µM	4.74 µM	> 10 µM	> 10 µM	> 10 µM
O=C(NO)c1ccc(Cn2c(=O)n(-c3ccccc3)c(=O)c3ccccc32)cc1	0.324 µM	0.898 µM	–	–	0.942 µM	> 100 µM	0.539 µM	2.09 µM	0.473 µM	2.34 µM	2.67 µM	39.5 µM	1.22 µM	3.34 µM	0.667 µM	3.03 µM	0.436 µM	2.95 µM	1.77 µM	4.63 µM
COC1C(CO)OC(n2c3c(Cl)cccc3c3c4c(c5c6cccc(Cl)c6[nH]c5c32)C(=O)NC4=O)C(O)C1O (centres undefined)	–	0.781 µM	–	> 100 µM	–	> 100 µM	–	10.7 µM	–	1.12 µM	–	> 100 µM	–	> 26.3 µM	–	> 100 µM	–	> 21.1 µM	–	2.6 µM
COc1cnc2c(c1)C(=O)c1c-2n(CCCNCCN2CCOCC2)c(=O)c2cc([N+](=O)[O-])ccc12	–	–	0.297 µM	2.58 µM	0.226 µM	2.59 µM	0.0689 µM	1.52 µM	0.34 µM	2.86 µM	0.125 µM	1.45 µM	1.59 µM	14.4 µM	0.128 µM	8.68 µM	0.11 µM	18.1 µM	0.0523 µM	–
CN(C)c1ccc2cc3ccc(N(C)C)cc3nc2c1	–	–	–	2.94 µM	–	21.6 µM	–	8.15 µM	–	10.1 µM	–	5.06 µM	–	21.9 µM	–	–	–	36.4 µM	–	4.11 µM
C[C@@H](Oc1cc(-n2cnc3ccc(OCC4CCN(C)CC4)cc32)sc1C(N)=O)c1ccccc1Cl	0.0617 µM	3.05 µM	0.0998 µM	3.39 µM	0.0437 µM	3.34 µM	0.0561 µM	3.12 µM	2.93 µM	6.95 µM	0.258 µM	2.4 µM	0.0559 µM	4.13 µM	0.0267 µM	3.27 µM	2.86 µM	6.3 µM	0.616 µM	3.96 µM
Cc1ccc2nc3c(n2c1)C(=O)C(=O)c1ccccc1-3	0.188 µM	1.09 µM	0.17 µM	0.416 µM	0.0612 µM	0.286 µM	0.183 µM	0.34 µM	0.157 µM	0.32 µM	0.348 µM	2.51 µM	0.293 µM	0.849 µM	0.198 µM	0.411 µM	0.389 µM	1.74 µM	0.194 µM	1 µM
CCCCCCCCCCC[C@@H](C[C@H]1OC(=O)[C@H]1CCCCCC)OC(=O)[C@@H](CC(C)C)NC=O	3.14 µM	19.3 µM	2.65 µM	46.8 µM	4.36 µM	47.3 µM	6.1 µM	87 µM	15.9 µM	41.7 µM	2.86 µM	15.2 µM	6.04 µM	24.8 µM	4.92 µM	94.1 µM	13.3 µM	> 100 µM	2.52 µM	59.6 µM
CNC(=O)c1cc(Oc2ccc3nc(N[C@@H]4CCCC[C@H]4O)sc3c2)ccn1	49.1 µM	> 100 µM	38.1 µM	> 100 µM	43.7 µM	> 100 µM	36.7 µM	> 100 µM	28.6 µM	99.2 µM	49.2 µM	> 100 µM	> 87.8 µM	> 100 µM	> 100 µM	> 100 µM	21.1 µM	> 100 µM	33.5 µM	> 100 µM
O=C(c1nn(-c2ccc(Cl)cc2)cc1O)n1nc(C(F)(F)F)cc1-c1ccccc1	1.91 µM	> 100 µM	1.13 µM	> 100 µM	1.72 µM	> 100 µM	3.69 µM	> 52.2 µM	12.1 µM	> 100 µM	2.09 µM	> 35.9 µM	38.2 µM	> 100 µM	4.51 µM	> 100 µM	4.01 µM	> 100 µM	2.9 µM	> 100 µM
OCCn1cc(-c2cnc3nnn(Cc4ccc5ncccc5c4)c3n2)cn1	> 100 µM	> 100 µM	> 100 µM	> 100 µM	> 100 µM	> 100 µM	> 100 µM	> 100 µM	> 100 µM	> 100 µM	> 100 µM	> 100 µM	> 76.2 µM	> 100 µM	> 100 µM	> 100 µM	> 100 µM	> 100 µM	> 100 µM	> 100 µM
O=C1/C(=C/c2ccc(Cl)cc2)CCC1CN1CCOCC1 (centres undefined)	–	17.8 µM	–	11.6 µM	–	8.06 µM	–	19.4 µM	–	20.3 µM	–	22.5 µM	–	33.8 µM	–	6.71 µM	–	6.25 µM	–	22.4 µM
CCOC(=O)c1ccc(N(C=O)CCC(=O)CCl)cc1	0.0342 µM	1.73 µM	0.0487 µM	2.58 µM	0.0353 µM	> 69.3 µM	0.0553 µM	1.5 µM	1.49 µM	3.48 µM	0.393 µM	19.4 µM	0.465 µM	2.14 µM	0.0398 µM	1.53 µM	1.16 µM	3.45 µM	0.552 µM	1.98 µM
CCCCCCCCNC(C)C(O)c1ccc(SC(C)C)cc1 (centres undefined)	1.59 µM	3.11 µM	1.7 µM	3.29 µM	1.88 µM	3.8 µM	1.72 µM	3.26 µM	1.98 µM	3.81 µM	1.57 µM	3.17 µM	2.05 µM	3.74 µM	1.74 µM	3.29 µM	1.32 µM	2.85 µM	1.77 µM	3.32 µM
O=C1CCSC(=S)N1c1ccc(Br)c(Cl)c1	–	> 100 µM	–	40.2 µM	–	> 100 µM	–	> 100 µM	–	49.8 µM	–	> 100 µM	–	58.2 µM	–	91.6 µM	–	39.5 µM	–	82 µM
COc1ccc(C2=N[C@@H](c3ccc(Cl)cc3)[C@@H](c3ccc(Cl)cc3)N2C(=O)N2CCNC(=O)C2)c(OC(C)C)c1	12.4 µM and 3.82 µM and 3.53 µM	25.4 µM and 18.4 µM and 18.7 µM	14.3 µM and 14.5 µM and 14.9 µM	32.3 µM and 28.7 µM and 30.2 µM	16.5 µM and 17.1 µM	61.6 µM and 53.1 µM and 74.1 µM	14.1 µM and 14.9 µM and 16.3 µM	28.4 µM and 32 µM and 33.2 µM	11.2 µM and 2.56 µM and 1.15 µM	25.6 µM and 16.4 µM and 17.1 µM	16.9 µM and 16.7 µM and 16.2 µM	35 µM and 37.8 µM and 37.1 µM	16.3 µM and 14.6 µM and 15.9 µM	30.9 µM and 29 µM and 30.6 µM	17.1 µM and 18.2 µM and 16.7 µM	33.6 µM and 37.4 µM and 34 µM	14.6 µM and 10.5 µM and 15.2 µM	30.4 µM and 27.4 µM and 40.6 µM	5.92 µM and 3.77 µM and 2.63 µM	20.7 µM and 17.5 µM and 15.9 µM
CCCC(C)c1c(Cl)nc(Cl)nc1Cl (centres undefined)	–	3.66 µM	–	64.4 µM	–	> 100 µM	–	3.92 µM	–	55.6 µM	–	> 100 µM	–	> 100 µM	–	> 100 µM	–	29 µM	–	34.7 µM
COc1ccc(-n2cc(-c3cc(OC)c(OC)c(OC)c3)[nH]c2=S)cc1Cl	24.4 µM	> 100 µM	> 100 µM	> 100 µM	> 100 µM	> 100 µM	–	–	40.1 µM	> 100 µM	27.5 µM	> 100 µM	> 100 µM	> 100 µM	> 100 µM	> 100 µM	29 µM	> 100 µM	38.6 µM	> 100 µM
Clc1ccc2nc(Cl)c3ccccc3c2c1	4.34 µM	22.1 µM	> 100 µM	> 100 µM	> 100 µM	> 100 µM	> 100 µM	> 100 µM	10.7 µM	71.1 µM	17.8 µM	> 100 µM	24.3 µM	60.8 µM	> 100 µM	> 100 µM	4.02 µM	> 100 µM	3.82 µM	38.1 µM
O=C(Cn1c(C(=O)c2ccc(Cl)cc2)nc(-c2ccccc2)c1-c1ccccc1)c1ccc(Cl)cc1	> 100 µM	> 100 µM	> 100 µM	> 100 µM	> 100 µM	> 100 µM	> 100 µM	> 100 µM	> 100 µM	> 100 µM	> 100 µM	> 100 µM	> 100 µM	> 100 µM	> 100 µM	> 100 µM	> 100 µM	> 100 µM	> 100 µM	> 100 µM
O=c1c2c(=NCCN3CCCC3)cc3c(=O)n(CCCN4CCOCC4)c(=O)c4ccc(c(O)n1CCCN1CCOCC1)c2c4-3	< 0.0174 µM	1.09 µM	< 0.0201 µM	0.946 µM	< 0.0213 µM	> 70.4 µM	0.323 µM	1.19 µM	0.346 µM	1.22 µM	0.166 µM	12 µM	0.239 µM	0.874 µM	< 0.0192 µM	1.07 µM	0.273 µM	2.2 µM	–	–
O=C1/C(=C/c2ccc(Cl)cc2)CN(C(=O)CCN2CCC(=NO)CC2)C/C1=C\c1ccc(Cl)cc1	0.245 µM	0.654 µM	0.383 µM	1.38 µM	0.23 µM	–	0.754 µM	2.3 µM	1.5 µM	3.12 µM	0.93 µM	3.75 µM	1.95 µM	3.92 µM	0.179 µM	0.467 µM	1.08 µM	4.26 µM	1.01 µM	2.3 µM
COc1cc(OC)c(F)c(COc2cnc(Nc3cnn(CCO)c3)nc2)c1F	0.386 µM	> 100 µM	0.482 µM	> 100 µM	0.343 µM	> 100 µM	–	–	0.923 µM	7.66 µM	0.726 µM	> 100 µM	0.404 µM	2.71 µM	0.412 µM	> 100 µM	1.68 µM	> 100 µM	0.556 µM	> 20.5 µM
c1ccc2cc(C[n+]3ccn(Cc4ccc5ccccc5n4)c3)ccc2c1	0.413 µM and 3.29 µM	6.86 µM and 15.8 µM	12.3 µM and 53.5 µM	27.7 µM and > 100 µM	0.585 µM and 1.7 µM	13.8 µM and 14.8 µM	0.727 µM and 3.26 µM	4.55 µM and 17.1 µM	0.235 µM and 1.36 µM	0.811 µM and 6.35 µM	> 100 µM	> 100 µM	0.381 µM and 2.44 µM	1.8 µM and 8.98 µM	0.734 µM and 6.27 µM	11.8 µM and 22.1 µM	0.239 µM and 2.32 µM	–	10.6 µM and 35.8 µM	25.4 µM and > 100 µM
CC(=O)Nc1ccc(-c2csc(Nc3cccc(-c4csc(-c5ccccc5)n4)c3)n2)cc1	18.4 µM	> 50 µM	10.3 µM	> 50 µM	12.6 µM	48.5 µM	20.5 µM	> 50 µM	–	–	17.5 µM	> 50 µM	16.4 µM	> 50 µM	> 50 µM	> 50 µM	43.4 µM	> 50 µM	16.7 µM	> 50 µM
COc1ccc(-c2nc(-c3ccccn3)c(-c3ccccn3)n2CC(C)C)cc1OC1CCCC1	7.35 µM	> 165 µM	6.72 µM	> 165 µM	6.37 µM	> 165 µM	22.7 µM	114 µM	–	–	6.96 µM	> 165 µM	38.4 µM	80.2 µM	42 µM	> 165 µM	9.73 µM	> 165 µM	7.43 µM	142 µM
O=C(Oc1ccccc1Cl)c1ccccc1Nc1cccc(C(F)(F)F)c1	14.7 µM	40.9 µM	29.4 µM	> 100 µM	2.67 µM	8.43 µM	13.9 µM	38.9 µM	–	–	19 µM	44.4 µM	20.9 µM	> 100 µM	8.07 µM	54.4 µM	43.4 µM	> 100 µM	30.9 µM	> 100 µM
